Publication PMC9503518, “Antibacterial and Antifungal Properties of a Novel Antimicrobial Peptide GK-19 and Its Application in Skin and Soft Tissue Infections Induced by MRSA or Candida albicans” (Pharmaceutics, 2022)
≈ marks a conversion by molar mass, not a printed value. Counter-ions that a name gives are not always drawn. Where no end group is shown, it is not given here.

How the values were obtained:
[1] = tested on: Methicillin-Resistant Staphylococcus aureus (MRSA, 2104270609, clinically isolated strain); type: cell-based; settings: 1 × 10^6 CFU/mL, MHB, 12 h, peptide 0-20 μM, absorbance at 600 nm, n = 5
Excerpt: (§1) Pseudomonas aeruginosa (P. aeruginosa, ATCC27853), Methicillin-Resistant Staphylococcus aureus (MRSA, 2104270609, clinically isolated strain), Escherichia coli (E. coli, ATCC25922), Klebsiella pneumoniae (K. pneumoniae, ATCC700603), Enterococcus faecalis (E. faecalis, ATCC29212), Candida krusei (C. krusei, ATCC6258), Candida albicans (C. albicans, ATCC90028), and Candida glabrata (C. glabrata, ATCCMYA-2950) were obtained from the First Affiliated Hospital of Xi’an Jiaotong University. Bacterial strains were cultured in MHA or MHB. Fungal strains were cultured in PDA or PDB.
(§2) Strains were incubated in MHB or PDB. After growing for 12–16 h at 37 °C, 200 rpm, 100 μL of 1 × 10^6 CFU/mL of the strains was seeded into 96-well plates and incubated with fresh culture medium containing various antimicrobial peptides (peptide concentration: 0, 0.5, 1.0, 2.0, 3.0, 5.0, 10, 15 or 20 μM) for 12 h. Each concentration was repeated five times. Absorbance at 600 nm was measured using the Multilabel Reader Varioskan Flash (Thermo Fisher). […] (1)

[2] = tested on: Enterococcus faecalis (E. faecalis, ATCC29212); type: cell-based; settings: 1 × 10^6 CFU/mL, MHB, 12 h, peptide 0-20 μM, absorbance at 600 nm, n = 5
Excerpt: as §1, §2

[3] = tested on: Candida albicans (C. albicans, ATCC90028); type: cell-based; settings: 1 × 10^6 CFU/mL, PDB, 12 h, peptide 0-20 μM, absorbance at 600 nm, n = 5
Excerpt: as §1, §2

[4] = tested on: Pseudomonas aeruginosa (P. aeruginosa, ATCC27853); type: cell-based; settings: 1 × 10^6 CFU/mL, MHB, 12 h, peptide 0-20 μM, absorbance at 600 nm, n = 5
Excerpt: as §1, §2

[5] = tested on: Candida krusei (C. krusei, ATCC6258); type: cell-based; settings: 12 h, absorbance at 600 nm, n = 5
Excerpt: as §1, §2

[6] = tested on: Candida glabrata (C. glabrata, ATCCMYA-2950); type: cell-based; settings: 1 × 10^6 CFU/mL, PDB, 12 h, peptide 0-20 μM, absorbance at 600 nm, n = 5
Excerpt: as §1, §2

[7] = tested on: Klebsiella pneumoniae (K. pneumoniae, ATCC700603); type: cell-based; settings: 1 × 10^6 CFU/mL, MHB, 12 h, peptide 0-20 μM, absorbance at 600 nm, n = 5
Excerpt: as §1, §2

[8] = tested on: Escherichia coli (E. coli, ATCC25922); type: cell-based; settings: 1 × 10^6 CFU/mL, MHB, 12 h, peptide 0-20 μM, absorbance at 600 nm, n = 5
Excerpt: as §1, §2

[9] = Peptide stability in rat serum by HPLC; type: in vitro ADME; settings: 10 mg/mL in rat serum, 37 °C, 200 rpm, repeated three times
Procedure: (§3) Antimicrobial peptides were dissolved in water or rat serum with a concentration of 10 mg/mL. The solution was incubated at 37 °C, 200 rpm for different time periods, and diluted 50 times for the HPLC analysis. In water, the incubation time was 0 h and 48 h. In rat serum, the incubation time was 0, 2, 4, 7, 12, 24 or 48 h. Each incubation condition was repeated three times. HPLC was conducted on a Waters HPLC system, which consisted of a 2996 photodiode array detector, a 2695 separation module and a temperature control column oven. Column: Sinochrom ODS-BP, 5 μm, 4.6 × 250 mm (Dalian Elite Analytical Instruments Co., Ltd., Dalian, China). Mobile phase: A: 100% ACN + 0.1% TFA; B: 100% Water + 0.1% TFA. Gradient elution: 0–20 min, 95% B–100% A; 20–25 min, 100% A. Detection wavelength: 220 nm. Flow rate: 1 mL/min. Sample volume: 50 μL (0.2 mg/mL).

[10] = Peptide stability in water by HPLC; type: physicochemical; settings: 10 mg/mL in water, 37 °C, 200 rpm, 0 and 48 h, HPLC 220 nm, repeated three times
Procedure: as §3

MRSA = tested on: MRSA
Procedure: (§4) The scalded mice models combined with SSTIs by MRSA or C. albicans were constructed. Fifty normal male Kunming mice (5–6 weeks old) weighing ~25 g were anesthetized by isoflurane using a small animal anesthesia machine (R640, RWD Life Science, China). After skin preparation and disinfection, a custom-made circular iron (diameter: 8 mm) (shown in Figure S4) was applied to both sides of the spine of the mice for 10 s at 300 °C, resulting in four scalded wounds. Mice were injected subcutaneously with 5 mg/kg meloxicam (Aladdin, Shanghai, China) for four days (once per day) after scalding for pain relief. Two days after scalding, the skin tissues of the scalded areas were removed carefully, and about 30 μL of 1 × 10^7 CFU/mL of MRSA or C. albicans was applied evenly onto the surfaces of the wounds. The mice were returned to the original feeding environment after the microbial fluid was completely absorbed (1.5–2 h), with two mice per cage. Corncob granules with SPF level were used as padding.
(§5) Two days after microbe inoculating, the scalded wounds of each mouse were divided into four groups randomly. […] The mice were returned to the original feeding environment after the solutions were completely absorbed. The treatment lasted for 12–16 days. Photographs of the wound areas were taken every two days using an iPhone 11 and the wound areas were measured every two days using Image J software (152-win-java8, Bethesda, MD, USA). The average wound areas on day two were used as the reference (100% unhealed) to normalized wound areas. Skin tissues of the wound areas were removed carefully at different time points (n = 5 for each time point) and weighted in a sterile environment. For MRSA infection, 10 mg of the wound tissues was dispersed into 1000 μL of sterile saline solution and the tissue solution was ground into suspension in a tissuelyser (Tissuelyser LT, Servicebio). Then, the tissue suspension was diluted with sterile saline solution 10 times and plated on MHA with a sample volume of 50 μL. For C. albicans infection, 10 mg of the wound tissues was dispersed into 200 μL of sterile saline solution and the tissue solution was also ground into suspension in the tissuelyser. The tissue suspension was then plated on PDA directly with a sample volume of 20 μL. After culturing overnight, the colonies were counted using Image J software or human eyes. In addition, the skin tissues of the wound area were removed carefully at different time points and dispersed into a 4% paraformaldehyde solution for further use.
(§6) The hematoxylin and eosin staining in this study was carried out by Servicebio (Wuhan, China). Briefly, the obtained skin tissues were soaked in 4% paraformaldehyde solution (Beyotime, China) and fixed for more than 24 h. Then, they were dehydrated and embedded with paraffin, and tissue sections having thicknesses of 4 μm were prepared. After deparaffinization and rehydration, hematoxylin and eosin staining was performed.

[11] = unstable in serum; cited from earlier work
Excerpt: The venom of scorpions, which has been proven to kill Gram-negative and Gram-positive bacteria, fungi, viruses and even tumor cells, are a rich source of antimicrobial peptides. Androctonus amoreuxi Antimicrobial Peptide 1 (AamAP1), identified from the venom-derived cDNA library of the North African scorpion, Androctonus amoeruxi, is a new type of host defense peptide. With broad-spectrum antimicrobial properties, it has been posited that AamAP1 kills bacteria cells through membrane disruption, which will not induce bacterial resistance. However, there are still some disadvantages in us ...

C. albicans = settings: topical 50 μM twice a day
Procedure: as §4, §5, §6

[12] = C. albicans-infected scald wounds, mice, n = 10
[13] = colony count of wound tissue on PDA, n = 5

What does the source list for `CC[C@H](C)[C@H](NC(=O)[C@H](C)NC(=O)[C@H](Cc1c[nH]cn1)NC(=O)[C@@H]1CCCN1C(=O)[C@@H](NC(=O)[C@H](CC(C)C)NC(=O)[C@H](CO)NC(=O)[C@H](Cc1ccccc1)NC(=O)[C@H](CC(C)C)NC(=O)[C@@H](N)Cc1ccccc1)[C@@H](C)CC)C(=O)NCC(=O)NCC(=O)N[C@@H](CC(C)C)C(=O)N[C@H](C(=O)N[C@@H](CO)C(=O)N[C@@H](C)C(=O)N[C@@H](Cc1ccccc1)C(=O)N[C@@H](CCCCN)C(=O)O)[C@@H](C)CC` [AamAP1, Androctonus amoreuxi Antimicrobial Peptide 1, reference compound]?
Minimum inhibitory concentration (MIC), MRSA [1]: > 20 µM; Minimum inhibitory concentration (MIC), E. faecalis [2]: > 20 µM; Minimum inhibitory concentration (MIC), C. albicans [3]: > 20 µM; Minimum inhibitory concentration (MIC), P. aeruginosa [4]: > 20 µM; Minimum inhibitory concentration (MIC), C. krusei ([5]; 1 × 10^6 CFU/mL, PDB, peptide 0-20 μM): 20 µM (≈ 38.6 µg/mL); inhibition of C. krusei ([5]; within 0-20 μM): 90%; Minimum inhibitory concentration (MIC), C. glabrata [6]: > 20 µM; Minimum inhibitory concentration (MIC), K. pneumoniae [7]: > 20 µM; Minimum inhibitory concentration (MIC), E. coli [8]: > 20 µM; metabolised at 7 h, 10 mg/mL ([9]; 7 h, HPLC peak area 220 nm, read-out: peptide degraded after seven hours of co-incubation with rat serum): > 65%; change of HPLC peak after incubation in rat serum for two hours ([9]; two hours, HPLC 220 nm): position of its chromatographic peak moved backward; time for which structural stability was retained in water [10]: ≥ 48 h; MRSA suppressed (inhibition rate) at day eight compared with saline solution groups (MRSA; mouse, in vivo, 2 h, 50 μM): more than 90%; predicted half-life [11]: less than two hours

What does the source list for `CCC[C@@H]1C[C@@H](C(=O)N[C@@H]([C@H]2O[C@H](SC)[C@H](O)[C@@H](O)[C@H]2O)[C@H](C)Cl)N(C)C1` [CDHC, clindamycin hydrochloride]?
wound area healed on day eight (MRSA; MRSA-infected scald wounds, mice, topical 50 μM twice a day, day 2 area = 100% unhealed, n = 10): more than 45%; unhealed wounds on day 16 (MRSA; MRSA-infected scald wounds, mice, topical 50 μM twice a day, n = 10): completely disappeared

Which results are given for `OC(Cn1cncn1)(Cn1cncn1)c1ccc(F)cc1F` [FCZ, fluconazole]?
area of the wounds healed on day 10 (C. albicans; [12]): more than 95%; unhealed wounds on day 12 (C. albicans; [12]): completely disappeared; C. albicans in wound tissue on day 12 (C. albicans; [13]): no C. albicans detected; C. albicans suppressed (inhibition rate) at day eight compared with saline solution groups (C. albicans; [13]): ~ 98%

For FLFKLIPKAIKKLISKFK [AamAP1-Lysine], which predicted half-life [11] is on record?
Its predicted half-life is “less than two hours”.
